Converted amounts (≈) assume the structure as drawn. Where two headings read alike, the source gives them in different places.
Experiments:
[1] = test system: Streptococcus agalactiae; experiment: Minimum Bactericidal Concentration (MBC) in liquid medium against Streptococcus agalactiae; format: cell-based
Procedure: Three Streptococcus agalactiae strains isolated from vaginal-rectal buffers during the prenatal check-ups were used for the assay. The strains were named “strain 2”, “strain 10” and “strain 11”. Isolation was carried out on a blood agar medium and identification was obtained through biochemical tests of the API 20 Strep (Bio-Mérieux) system and through the identification of the Lancefield group.
The experiments were also carried out on a Streptococcus agalactiae ATCC 12386 strain.
“Brain Heart Infusion broth” (BHIb, Becton Dickinson) medium was used for the Streptococcus agalactiae culture, “Mueller-Hinton broth” (M-Hb) medium after adding 2% “laked” horse blood and the “Mueller-Hinton agar” (M-Ha) medium with addition of defibrinated horse blood at 5% (Oxoid) were used for the antimicrobial activity assays.
The Streptococcus agalactiae strains were cultured in BHIb broth for 24 hours at 37° C. Immediately before the assay, the bacterial suspensions were diluted up to obtaining turbidity equivalent to 0.5 McFarland standard. 50 μl of a further 1:100 dilution in broth+blood at 2% were distributed in the wells of the microtitre plates. The presumed titre of the inoculum carried out through this procedure is of about 5×10^4 ufc (units forming colony)/well.
The bacterial cultures were also diluted serially according to a value 10 (up to a dilution value equivalent to 10^−7) and an aliquot of 0.1 ml of each dilution was double streaked on M-Ha +blood 5% for determining the actual titre to be used, subsequently, to determine the MBC (Minimum Bactericidal Concentration).
The assay was carried out in 96-well microtitre plates. 50 μl of M-Hb at normal concentration were deposited in the first well of each of the 5 rows. Starting from the first well of each row, […] volumes were transferred from each well to the subsequent one 10 times, thus obtaining a series of dilutions after doubling. The 12th well of each row was kept substance-free as a positive control of the bacterial growth.
Subsequently, 50 μl of bacterial inoculum of M-Hb+double concentration blood (4%) were deposited in all wells of the plate, except for the 11th of each row. Only M-Hb+double concentration blood but bacteria-free, were deposited in the 11th well, with the aim of providing negative control for each row. The described scheme was used for the assay of each of the three Streptococcus agalactiae strains.
(§1) Immediately after determining the value of the MIC for each substance, a volume equivalent to 50 μl was taken from each well and streaked on the surface of plates containing the solid medium. The plates were subsequently incubated at the conditions indicated for each microbial strain. After incubation at 37° C. for 24 hours, the number of colonies grown on the medium surface was counted thus determining the number of bacteria that survived after 24 hours of contact with the substance at the concentration present in the well. The MBC value defined as the lowest concentration of each substance capable of reducing the bacterial load by 99.9% in the previously defined assay conditions was determined through comparison between the number of bacteria that survived in each well and that of the bacterial inoculum deposited initially.

[2] = test system: Neisseria gonorrhoeae ATCC 43069; experiment: MBC against Neisseria gonorrhoeae; format: cell-based; settings: substance alone
Procedure: as §1, with “The Gardnerella vaginalis ATCC 14018 strain, the Neisseria gonorrhoeae ATCC 43069 strain and the Candida albicans ATCC 10231 strain were also used for the experiment. [table] The other assayed microbial strains were cultured in the liquid media and in the incubation conditions specified in table A, following the operating procedure described above. Immediately” for “Immediately”

[3] = test system: Neisseria gonorrhoeae ATCC 43069; experiment: MIC against Neisseria gonorrhoeae; format: cell-based; settings: substance alone
Procedure: (§2) The Gardnerella vaginalis ATCC 14018 strain, the Neisseria gonorrhoeae ATCC 43069 strain and the Candida albicans ATCC 10231 strain were also used for the experiment.
(§3) The other assayed microbial strains were cultured in the liquid media and in the incubation conditions specified in table A, following the operating procedure described above.
(§4) The assay was carried out in 96-well microtitre plates. 50 μl of substance solution at the “mother” concentration alongside 50 μl of liquid medium at double concentration were deposited in the first well of each of the 8 rows while 50 μl of liquid medium at normal concentration were deposited in the remaining 11 wells. Starting from the first well of each row, 50 μl volumes were transferred from each well to the subsequent one 10 times, thus obtaining a series of 11 dilutions after doubling. The 12th well of each row was kept substance-free as a function of positive control of the bacterial growth.
(§5) Subsequently, 50 μl of diluted bacterial inoculum as specified previously were deposited in all wells of the plate, except for the 11th of each row. Only the liquid medium at single concentration but bacteria-free, was deposited in the 11th well, with the aim of providing negative control for each row. The described scheme was used for the assay with each of the assayed microbial strains. […]

[4] = test system: Streptococcus agalactiae; experiment: Minimum Inhibitory Concentration (MIC) on agarised medium against Streptococcus agalactiae; format: cell-based
Procedure: The assay was carried out on an M-Ha medium+blood at 5%. The medium was prepared at a concentration 33% higher with respect to the final one used in the test corresponding to the one indicated by the supplier. After sterilisation in autoclave, the medium was balanced at the temperature of 48° C. and added with horse blood at the concentration of 6.6% (33% higher than the final concentration of the assay). 15 ml aliquots of M-Ha medium+blood were transferred into 50 ml falcon test tubes maintained at 48° C., added with 5 ml of the dilutions of the substances to be assayed, mixed, poured into Petri dishes and left to solidify. Twenty-five bacterial inoculums, each with approximate volume of about 5 μl and containing about 10^5 ufc, were deposited on the surface of the M-Ha medium+blood of each plate. After incubation at 37° C. for 18 hours the minimum inhibitory concentration (MIC) defined as the minimum concentration of substance capable of inhibiting a bacterial growth noticeable to the naked eye at the area of deposition of the inoculums was read.
In the test with Streptococcus agalactiae the minimum inhibitory concentrations in the assay in liquid medium, regarding which only the bactericide minimum concentration values are indicated, could not be determined with sufficient reliability due to the turbidity of the solutions containing the substances. “Determination of the Minimum Inhibitory Concentration on Agarised Medium” was carried out to obtain the MIC values.

[5] = "Mother" concentration: highest concentration at which complete solubilisation could be obtained; format: physicochemical; settings: propylene glycol 30% in water, aqueous with cosolvent or surfactant or cyclodextrin; solvent prop glycol 30% in water; read-out: "mother" conc. (highest concentration at which complete solubilisation could be obtained)
Procedure: The substances to be subjected to the analysis were prepared for the assay through dilution and sterilisation as described hereinafter.
The concentration of the substances referred to as “mother” represents the highest concentration at which complete solubilisation could be obtained and it is […] than the highest concentration assayed in the test.

[6] = test system: Candida albicans ATCC 10231; experiment: MBC against Candida albicans; format: cell-based; settings: substance alone
Procedure: as §1, with “The Gardnerella vaginalis ATCC 14018 strain, the Neisseria gonorrhoeae ATCC 43069 strain and the Candida albicans ATCC 10231 strain were also used for the experiment. [table] The other assayed microbial strains were cultured in the liquid media and in the incubation conditions specified in table A, following the operating procedure described above. Immediately” for “Immediately”

[7] = test system: Candida albicans ATCC 10231; experiment: MIC against Candida albicans; format: cell-based; settings: substance alone
Procedure: as §2, §3, §4
Subsequently, 50 μl of diluted bacterial inoculum as specified previously were deposited in all wells of the plate, except for the 11th of each row. Only the liquid medium at single concentration but bacteria-free, was deposited in the 11th well, with the aim of providing negative control for each row. The described scheme was used for the assay with each of the assayed microbial strains.
After incubation at the conditions indicated regarding each micro-organism, the microtitre plates were examined to verify, in each well, the presence or absence of bacterial growth. The minimum inhibitory concentration is defined as the lowest concentration of the substance still capable of inhibiting bacterial growth i.e. preventing the liquid from becoming turbid within the well.

[8] = test system: Gardnerella vaginalis ATCC 14018; experiment: MIC against Gardnerella vaginalis; format: cell-based; settings: substance alone
Procedure: as §2, §3, §4, §5

[9] = test system: Gardnerella vaginalis ATCC 14018; experiment: MBC against Gardnerella vaginalis; format: cell-based; settings: substance alone
Procedure: as §1, with “The Gardnerella vaginalis ATCC 14018 strain, the Neisseria gonorrhoeae ATCC 43069 strain and the Candida albicans ATCC 10231 strain were also used for the experiment. [table] The other assayed microbial strains were cultured in the liquid media and in the incubation conditions specified in table A, following the operating procedure described above. Immediately” for “Immediately”

[10] = ATCC 12386 in M-Hb blood 2%, substance alone
[11] = Strain 2 in M-Hb blood 2%, substance alone
[12] = Strain 10 in M-Hb blood 2%, substance alone
[13] = Strain 11 in M-Hb blood 2%, substance alone

Row | Structure (SMILES) | MIC (minimum inhibiting concentration) ([4]; strain 2, substance alone) | MIC (minimum inhibiting concentration) ([4]; strain 5, substance alone) | MIC (minimum inhibiting concentration) ([4]; strain 6, substance alone) | MIC (minimum inhibiting concentration) ([4]; strain 7, substance alone) | MIC (minimum inhibiting concentration) ([4]; strain 8, substance alone) | MIC (minimum inhibiting concentration) ([4]; strain 9, substance alone) | MIC (minimum inhibiting concentration) ([4]; strain 10, substance alone) | MIC (minimum inhibiting concentration) ([4]; strain 11, substance alone) | MIC (minimum inhibiting concentration) ([4]; strain 12, substance alone) | MIC (minimum inhibiting concentration) ([4]; strain 13, substance alone) | MIC (minimum inhibiting concentration) ([4]; strain 14, substance alone) | MIC (minimum inhibiting concentration) ([4]; strain 15, substance alone) | MIC (minimum inhibiting concentration) ([4]; strain 16, substance alone) | MIC (minimum inhibiting concentration) ([4]; strain 17, substance alone) | MIC (minimum inhibiting concentration) ([4]; strain 18, substance alone) | MIC (minimum inhibiting concentration) ([4]; strain 19, substance alone) | MIC (minimum inhibiting concentration) ([4]; strain 20, substance alone) | MIC (minimum inhibiting concentration) ([4]; strain 21, substance alone) | MIC (minimum inhibiting concentration) ([4]; strain 22, substance alone) | MIC (minimum inhibiting concentration) ([4]; strain 23, substance alone) | further results
1 | CC1(C)S[C@@H]2[C@H](NC(=O)[C@H](N)c3ccccc3)C(=O)N2[C@H]1C(=O)O [Ampicillin, reference compound] |  |  |  |  |  |  |  |  |  |  |  |  |  |  |  |  |  |  |  |  | MBC ([1]; Streptococcus agalactiae, ATCC12386, ATCC 12386 in M-Hb blood 2%, reference antibiotic, read-out: MBC): 0.5 µg/mL (≈ 1.43 µM); MBC ([1]; Streptococcus agalactiae, Strain 2 in M-Hb blood 2%, reference antibiotic, read-out: MBC): < 0.06 µg/mL; MBC ([1]; Streptococcus agalactiae, Strain 10 in M-Hb blood 2%, reference antibiotic, read-out: MBC): 1 µg/mL (≈ 2.86 µM); MBC ([1]; Streptococcus agalactiae, Strain 11 in M-Hb blood 2%, reference antibiotic, read-out: MBC): < 0.06 µg/mL; concentrations required to perform the bactericidal action, times higher in strain 10 than against strain 2 and 11 ([1]; strain 10 versus strains 2 and 11): at least 15 times; MBC [2]: ≦0.000012%; MIC [3]: ≦0.000012%
2 | CCCCCCCCCCCC(=O)O [F, lauric acid] | 0.25% | 0.25% | 0.25% | 0.25% | 0.25% | 0.25% | 0.25% | 0.25% | 0.25% | 0.25% | 0.25% | 0.25% | 0.25% | 0.25% | 0.25% | 0.25% | 0.25% | 0.25% | 0.25% | 0.25% | MIC (minimum inhibiting concentration) ([4]; strain 24, substance alone): 0.25%; MIC (minimum inhibiting concentration) ([4]; strain 25, substance alone): 0.25%; MIC (minimum inhibiting concentration) ([4]; strain 12386, substance alone): 0.25%; MIC (minimum inhibiting concentration) ([4]; strain 12403, substance alone): 0.25%; MIC (minimum inhibiting concentration) ([4]; strain 27956, substance alone): 0.25%; MBC [1, 10]: 0.25; MBC [1, 11]: ≧0.25; MBC [1, 12]: ≧0.25; MBC [1, 13]: 0.25; solubility [5]: 10.1 mg/mL (≈ 50300 µM)
3 | CCCCCCCCCCCC(=O)OCC(O)CO (stereo not drawn) [G, monolaurate] | 0.11% | 0.11% | 0.11% | 0.11% | 0.22% | 0.11% | 0.22% | 0.11% | 0.11% | 0.11% | 0.11% | 0.11% | 0.11% | 0.11% | 0.22% | 0.11% | 0.11% | 0.11% | 0.11% | 0.11% | MIC (minimum inhibiting concentration) ([4]; strain 24, substance alone): 0.11%; MIC (minimum inhibiting concentration) ([4]; strain 25, substance alone): 0.11%; MIC (minimum inhibiting concentration) ([4]; strain 12386, substance alone): 0.11%; MIC (minimum inhibiting concentration) ([4]; strain 12403, substance alone): 0.11%; MIC (minimum inhibiting concentration) ([4]; strain 27956, substance alone): 0.11%; MBC [1, 10]: 0.107; MBC [1, 11]: 0.107; MBC [1, 12]: 0.428; MBC [1, 13]: 0.107
4 | Clc1ccc(COC(Cn2ccnc2)c2ccc(Cl)cc2Cl)cc1 (stereo not drawn) [econazole] |  |  |  |  |  |  |  |  |  |  |  |  |  |  |  |  |  |  |  |  | MBC [6]: 0.0008%; MIC [7]: 0.000025%
5 | Cc1ncc([N+](=O)[O-])n1CCO [metronidazole, reference compound] |  |  |  |  |  |  |  |  |  |  |  |  |  |  |  |  |  |  |  |  | MIC [8]: 0.0004%; MBC [9]: 0.0008%
6 | Clc1ccc(COC(Cn2ccnc2)c2ccc(Cl)cc2Cl)c(Cl)c1 (stereo not drawn) [miconazole] |  |  |  |  |  |  |  |  |  |  |  |  |  |  |  |  |  |  |  |  | MBC [6]: 0.0008%; MIC [7]: 0.000012%

— patent US20140051650A1, “VAGINAL COMPOSITIONS BASED ON ALKYL POLYGLUCOSIDES” (EFFIK S.A., priority 2011, published 2014)
